Series [1] deals with Plasmodium falciparum. The series can be described thus: Antimalarial activity against chloroquine-sensitive Plasmodium falciparum 3D7 infected in red blood cells assessed as reduction in mature schizonts formation after 24 hrs by Giemsa-staining based assay. Type of series: functional, organism-based. The conditions noted are these: 3D7, 24 h.
A short description of series [2]: Cytotoxicity against African green monkey Vero cells assessed as reduction in cell viability after 72 hrs by MTT assay. The series is classed as cell-based. The conditions noted are these: chlorocebus sabaeus. (Formazan colour is commonly taken as a measure of viable cells.)
A short description of series [3]: Selectivity index, ratio of CC50 for African green monkey Vero cells to EC50 for chloroquine-sensitive Plasmodium falciparum 3D7. Type of series: toxicity. As to conditions: read-out: Ratio CC50/EC50.
The nature of series [4]: Selectivity index, ratio of CC50 for African green monkey Vero cells to EC50 for chloroquine-resistant Plasmodium falciparum RKL9. As to conditions: read-out: Ratio CC50/EC50. The series is classed as toxicity.
Series [5] concerns Plasmodium falciparum. The series can be described thus: Antimalarial activity against Plasmodium falciparum. The series is classed as functional, organism-based.
The subject of series [6] is Plasmodium falciparum. Kind of series: Antimalarial activity against chloroquine-resistant Plasmodium falciparum RKL9 infected in red blood cells assessed as reduction in mature schizonts formation after 24 hrs by Giemsa-staining based assay. The series is classed as functional, organism-based. As to conditions: RKL9, 24 h.
Series [7] can be described thus: Resistance Index, ratio of EC50 for chloroquine-resistant Plasmodium falciparum RKL9 to EC50 for chloroquine-sensitive Plasmodium falciparum 3D7. The series is classed as functional.
Series [8] has as its system Plasmodium falciparum. The series can be described thus: Antimalarial activity against chloroquine-resistant Plasmodium falciparum W2 after 48 hrs by LDH assay. Type of series: functional, organism-based. As to conditions: W2, 48 h.
For series [9], the system named is Plasmodium berghei. The series can be described thus: Antimalarial activity against Plasmodium berghei NK65 infected in Swiss albino mouse assessed as reduction in parasitemia at 25 mg/kg, po treated up to day 3 measured at day 4 by Giemsa-staining based microscopic analysis relative to control. Type of series: functional. Also noted: scale not given: the % may be the effect or the level left.

Series [10] deals with Plasmodium berghei. The series can be described thus: Antimalarial activity against Plasmodium berghei NK65 infected in Swiss albino mouse assessed as reduction in parasitemia at 50 mg/kg, po treated up to day 3 measured at day 4 by Giemsa-staining based microscopic analysis relative to control. The series is classed as functional. Also noted: scale not given: the % may be the effect or the level left.

Series [11] relates to Plasmodium berghei. The series can be described thus: Antimalarial activity against Plasmodium berghei NK65 infected in Swiss albino mouse assessed as mean survival days at 25 mg/kg, po treated up to day 3 measured over 30 days (reference value: 7.2 days). Type of series: functional.
The test system of series [12] is Plasmodium berghei. Kind of series: Antimalarial activity against Plasmodium berghei NK65 infected in Swiss albino mouse assessed as mean survival days at 50 mg/kg, po treated up to day 3 measured over 30 days (reference value: 7.2 days). Type of series: functional.
The subject of series [13] is Heme. The series can be described thus: Binding affinity to monomeric heme in DMSO/HEPES buffer solution at pH 7.4 by titration analysis.
The subject of series [14] is Heme. The series can be described thus: Binding affinity to monomeric heme in DMSO/HEPES buffer solution at pH 5.6 by titration analysis.
For a further series, the system named is mu-oxodimeric heme. The series can be described thus: Binding affinity to mu-oxodimeric heme in 0.1M NaOH solution at pH 5.8 by titration analysis.
Series [15] deals with Plasmodium berghei. Kind of series: Antimalarial activity against Plasmodium berghei NK65 infected in Swiss albino mouse assessed as reduction in parasitemia at 5 mg/kg, po treated up to day 3 measured at day 4 by Giemsa-staining based microscopic analysis relative to control. Type of series: functional. Set-up: scale not given: the % may be the effect or the level left.
For series [16], the system named is Plasmodium berghei. The series can be described thus: Antimalarial activity against Plasmodium berghei NK65 infected in Swiss albino mouse assessed as mean survival days at 5 mg/kg, po treated up to day 3 measured over 30 days (reference value: 7.2 days). Type of series: functional.
The test system of series [17] is Heme. The series can be described thus: Inhibition of heme crystal growth.
The test system of series [18] is Plasmodium falciparum. Kind of series: Antimalarial activity against chloroquine-sensitive Plasmodium falciparum 3D7 infected in red blood cells assessed as reduction in mature schizonts formation after 72 hrs by Giemsa-staining based assay. Type of series: functional, organism-based. As to conditions: 3D7, 72 h.

The results in this text go back to ChEMBL document CHEMBL4196051, “Pyrazole-pyrazoline as promising novel antimalarial agents: A mechanistic study” (Eur J Med Chem, 2018).

Broadly, the EC50 is the concentration giving half of the maximal effect. As usually defined, the CC50 is the concentration giving 50% cytotoxicity. Usually IC50 stands for the concentration at which inhibition is half-maximal.

`NS(=O)(=O)c1ccc(N2N=C(c3ccc(F)cc3)CC2c2cn(-c3ccccc3)nc2-c2ccc(F)cc2)cc1` (configuration not stated): the EC50 in the series on Plasmodium falciparum [1] came to 6.36 µM. Further, the CC50 at 72 h in [2] is more than 753 µM. For the same compound, the selectivity ratio in series [3] and in series [4] was more than 212 throughout.
For `Clc1ccccc1C(c1ccccc1)(c1ccccc1)n1ccnc1` [CLOTRIMAZOLE], the IC50 in the series on Plasmodium falciparum [5] came out at 12.9 µM.
For the compound `COc1ccc(C2=NN(c3ccc(S(N)(=O)=O)cc3)C(c3cn(-c4ccccc4)nc3-c3ccc(OC)cc3)C2)cc1` (configuration not stated), the EC50 in the series with Plasmodium falciparum [1] came out at 2.26 µM. The CC50 at 72 h in series [2] is 104 µM. For the same compound, the selectivity ratio in [3] and in series [4] was 78.9 in each case.
In the case of `Cc1ccc(C2=NN(c3ccc(S(N)(=O)=O)cc3)C(c3cn(-c4ccccc4)nc3-c3ccc(C)cc3)C2)cc1` (configuration not stated), the EC50 in the series on Plasmodium falciparum [1] was determined as 1.43 µM; with Plasmodium falciparum [6] it was 1.64 µM. Moreover, in series [7], the Ratio EC50 stood at 1.14. Moreover, in series [2], the CC50 at 72 h was more than 41.5 µM. Further, the selectivity ratio in series [3] and in series [4] was more than 52.8 in each case.
On to `C[n+]1c2ccc(Br)cc2cc2[nH]c3ccc(Br)cc3c21`, for which the IC50 in the series on Plasmodium falciparum [8] came to 4 µM.
Consider `COc1ccc(C2=NN(c3ccc(S(N)(=O)=O)cc3)C(c3cn(-c4ccccc4)nc3-c3ccc(C)cc3)C2)cc1` (configuration not stated), for which the EC50 in the series with Plasmodium falciparum [1] stood at 1.38 µM; in the series with Plasmodium falciparum [6], 1.31 µM. The Ratio EC50 in [7] came to 0.94. Besides, the CC50 at 72 h in series [2] is more than 36.6 µM. The selectivity ratio in [3] and in series [4] was more than 46.8 throughout. Moreover, the results for the Activity in the series with Plasmodium berghei [9] and in the series with Plasmodium berghei [10] were 68.42% and 82.49%, respectively. The MSD in the series with Plasmodium berghei [11] amounted to 13.4 days; with Plasmodium berghei [12] it was 19.8 days. Besides, the log K in the series on Heme [13] worked out at 5.12; with Heme [14] it was 5.58; with mu-oxodimeric heme it was 5.19.
Take `Cc1ccc(C2=NN(c3ccc(S(N)(=O)=O)cc3)C(c3cn(-c4ccccc4)nc3-c3ccc(F)cc3)C2)cc1` (configuration not stated): the EC50 in the series with Plasmodium falciparum [1] is 2.23 µM. In addition, in [2], the CC50 at 72 h is more than 90.7 µM. The selectivity ratio in series [3] and in series [4] was more than 73.2 in each case.
For the compound `COc1ccc(C2=NN(c3ccc(S(N)(=O)=O)cc3)C(c3cn(-c4ccccc4)nc3-c3ccc(Cl)cc3)C2)cc1` (configuration not stated), the EC50 with Plasmodium falciparum [1] turned out to be 1.61 µM; with Plasmodium falciparum [6], 2.12 µM. Also, in [7], the Ratio EC50 came to 1.31. Also, in series [2], the CC50 at 72 h stood at 31.3 µM. Also, the selectivity ratio in series [3] and in [4] was 33.2 throughout.
As to `CCN(CC)CCCC(C)Nc1ccnc2cc(Cl)ccc12` (configuration not stated) [CHLOROQUINE], the values for the EC50 with Plasmodium falciparum [1] and with Plasmodium falciparum [6] were 2.97 µM and 11.2 µM, respectively. Besides, in the series with Plasmodium berghei [15], the Activity is given as 97.1%. Also, the MSD with Plasmodium berghei [16] was 30 days.
For `Clc1ccc(COC(Cn2ccnc2)c2ccc(Cl)cc2Cl)c(Cl)c1` (configuration not stated) [MICONAZOLE], the midpoint of inhibition with Heme [17], the IC50, lay at 21.4 µM.
In the case of `NS(=O)(=O)c1ccc(N2N=C(c3ccc(Cl)cc3Cl)CC2c2cn(-c3ccccc3)nc2-c2ccccc2)cc1` (configuration not stated), in the series on Plasmodium falciparum [1], the EC50 was 4.58 µM. Further, the CC50 at 72 h in series [2] was more than 438 µM. The selectivity ratio in [3] and in series [4] was more than 162 throughout.
Take `COc1ccc(/C=C(\C#N)c2nc3ccccc3[nH]2)cc1`: in the series on Plasmodium falciparum [18], the IC50 came to 0.069 µM.
On to `COc1ccc(C2=NN(c3ccc(S(N)(=O)=O)cc3)C(c3cn(-c4ccccc4)nc3-c3ccccc3)C2)cc1` (configuration not stated), for which the EC50 with Plasmodium falciparum [1] was 1.42 µM; in the series on Plasmodium falciparum [6], 1.78 µM. The Ratio EC50 in series [7] is 1.25. Also, the CC50 at 72 h in series [2] was 40.2 µM. The selectivity ratio in series [3] and in series [4] was 51.4 each time.
As for `NS(=O)(=O)c1ccc(N2N=C(c3ccc(F)cc3)CC2c2cn(-c3ccccc3)nc2-c2ccccc2)cc1` (configuration not stated), the EC50 with Plasmodium falciparum [1] is 6.67 µM. Also, the half-maximal cytotoxic concentration (CC50) at 72 h in series [2] is more than 807 µM. The selectivity ratio in series [3] and in [4] was more than 225 throughout.
Regarding `NS(=O)(=O)c1ccc(N2N=C(c3ccc(Cl)cc3)CC2c2cn(-c3ccccc3)nc2-c2ccc(Cl)cc2)cc1` (configuration not stated), the EC50 in the series on Plasmodium falciparum [1] came to 2.8 µM. Besides, the CC50 at 72 h in series [2] was more than 164 µM. The selectivity ratio in [3] and in [4] was more than 99 throughout.
Turning to `COc1cccc(C2=NN(c3ccc(S(N)(=O)=O)cc3)C(c3cn(-c4ccccc4)nc3-c3ccc(C)cc3)C2)c1OC` (configuration not stated), the concentration for a half-maximal effect (EC50) with Plasmodium falciparum [1] was 1.61 µM; with Plasmodium falciparum [6], 1.55 µM. In addition, the Ratio EC50 in series [7] is 0.97. Also, in series [2], the CC50 at 72 h was more than 57.4 µM. Moreover, the selectivity ratio in [3] and in series [4] was more than 60 each time.
For `Cc1ccc(-c2nn(-c3ccccc3)cc2C2CC(c3ccccc3)=NN2c2ccc(S(N)(=O)=O)cc2)cc1` (configuration not stated), the half-maximal effective concentration (EC50) in the series on Plasmodium falciparum [1] amounted to 2.97 µM. In addition, in series [2], the CC50 at 72 h was more than 162 µM. The selectivity ratio in [3] and in series [4] was more than 98 each time.
As for `NS(=O)(=O)c1ccc(N2N=C(c3ccc(Cl)cc3)CC2c2cn(-c3ccccc3)nc2-c2ccccc2)cc1` (configuration not stated), the EC50 with Plasmodium falciparum [1] came to 3.35 µM. Also, the cytotoxic concentration (CC50) at 72 h in series [2] is more than 207 µM. In addition, the selectivity ratio in series [3] and in series [4] was more than 111 throughout.
On to `NS(=O)(=O)c1ccc(N2N=C(c3ccc(O)cc3)CC2c2cn(-c3ccccc3)nc2-c2ccccc2)cc1` (configuration not stated), for which the EC50 in the series with Plasmodium falciparum [1] amounted to 3.05 µM. Besides, in series [2], the CC50 at 72 h was more than 161 µM. Besides, the selectivity ratio in [3] and in series [4] was more than 98 throughout.
Take `NS(=O)(=O)c1ccc(N2N=C(c3ccc(Br)cc3)CC2c2cn(-c3ccccc3)nc2-c2ccc(F)cc2)cc1` (configuration not stated): the EC50 in the series on Plasmodium falciparum [1] was 3.08 µM. The CC50 at 72 h in series [2] came to 49.4 µM. The selectivity ratio in series [3] and in series [4] was 25.9 throughout.
`COc1ccc(C2=NN(c3ccc(S(N)(=O)=O)cc3)C(c3cn(-c4ccccc4)nc3-c3ccc(F)cc3)C2)cc1` (configuration not stated): the figures for the EC50 with Plasmodium falciparum [1] and with Plasmodium falciparum [6] were 1.65 µM and 2.04 µM, respectively. Further, the Ratio EC50 in series [7] stood at 1.44. In addition, the 50% cytotoxic concentration (CC50) at 72 h in series [2] is more than 53.1 µM. The selectivity ratio in [3] and in series [4] was more than 56.4 in each case.
Regarding `NS(=O)(=O)c1ccc(N2N=C(c3ccc(O)cc3)CC2c2cn(-c3ccccc3)nc2-c2ccc(F)cc2)cc1` (configuration not stated), the EC50 was 1.57 µM with Plasmodium falciparum [1] and 2.02 µM in the series on Plasmodium falciparum [6]. Moreover, the Ratio EC50 in series [7] was found to be 1.29. Besides, the CC50 at 72 h in [2] is 32 µM. Moreover, the selectivity ratio in series [3] and in series [4] was 36.9 in each case.
